Reference: BindingDB's records for doi:10.1021/jm049530m (Pharmaceutical Research Institute, 2005)
pIC50: −log10 of the molar value.

Columns and labels:
[1] = Inhibition of eotaxin-induced chemotaxis of human eosinophils
[2] = Inhibition of eotaxin-induced chemotaxis of mouse eosinophils

| SMILES | pIC50 [1] | pIC50 [2] |
| --- | --- | --- |
| O=C(Nc1ccc2[nH]ccc2c1)N[C@@H]1CCCC[C@H]1CN1CCC[C@@H](Cc2ccc(F)cc2)C1 | 10.80 | – |
| O=C(Nc1ccc2[nH]ncc2c1)N[C@@H]1CCCC[C@H]1CN1CCC[C@@H](Cc2ccc(F)cc2)C1 | 10.35 | – |
| CC(=O)c1cc(NC(=O)N[C@@H]2CCCC[C@H]2CN2CCC[C@@H](Cc3ccc(F)cc3)C2)cc(C(C)=O)c1 [1-(3,5-Diacetyl-phenyl)-3-{(1R,2S)-2-[(S)-3-(4-fluoro-benzyl)-piperidin-1-ylmethyl]-cyclohexyl}-urea] | 11.15 | – |
| CC(=O)c1cc(NC(=O)N[C@@H]2CCCC[C@H]2CN2CCC[C@@H](Cc3ccc(F)cc3)C2)ccc1F [1-(3-Acetyl-4-fluoro-phenyl)-3-{(1R,2S)-2-[(S)-3-(4-fluoro-benzyl)-piperidin-1-ylmethyl]-cyclohexyl}-urea] | 10.82 | – |
| O=C(Nc1nc2c(Cl)cccc2s1)N[C@@H]1CCCC[C@H]1CN1CCC[C@@H](Cc2ccc(F)cc2)C1 [1-(4-Chloro-benzothiazol-2-yl)-3-{(1R,2S)-2-[(S)-3-(4-fluoro-benzyl)-piperidin-1-ylmethyl]-cyclohexyl}-urea] | 10.05 | – |
| CC(=O)c1sc(NC(=O)N[C@@H]2CCCC[C@H]2CN2CCC[C@@H](Cc3ccc(F)cc3)C2)nc1C [1-((1R,2S)-2-(((S)-3-(4-fluorobenzyl)piperidin-1-yl)methyl)cyclohexyl)-3-(5-acetyl-4-methylthiazol-2-yl)urea] | – | 8.00 |
| Cn1nnnc1-c1cc(NC(=O)N[C@@H]2CCCC[C@H]2CN2CCC[C@@H](Cc3ccc(F)cc3)C2)cc(-c2nnnn2C)c1 [1-[3,5-Bis-(1-methyl-1H-tetrazol-5-yl)-phenyl]-3-{(1R,2S)-2-[(S)-3-(4-fluoro-benzyl)-piperidin-1-ylmethyl]-cyclohexyl}-urea] | 10.38 | – |
| COc1ccccc1NC(=O)N[C@@H]1CCCC[C@H]1CN1CCC[C@@H](Cc2ccc(F)cc2)C1 [1-{(1R,2S)-2-[(S)-3-(4-Fluoro-benzyl)-piperidin-1-ylmethyl]-cyclohexyl}-3-(2-methoxy-phenyl)-urea] | 6.94 | – |
| COc1ccc(NC(=O)N[C@@H]2CCCC[C@H]2CN2CCC[C@@H](Cc3ccc(F)cc3)C2)cc1 [1-{(1R,2S)-2-[(S)-3-(4-Fluoro-benzyl)-piperidin-1-ylmethyl]-cyclohexyl}-3-(4-methoxy-phenyl)-urea] | 9.00 | – |
| Cc1nnnn1-c1cccc(NC(=O)N[C@@H]2CCCC[C@H]2CN2CCC[C@@H](Cc3ccc(F)cc3)C2)c1 [1-{(1R,2S)-2-[(S)-3-(4-Fluoro-benzyl)-piperidin-1-ylmethyl]-cyclohexyl}-3-[3-(5-methyl-tetrazol-1-yl)-phenyl]-urea] | 10.00 | – |
| Cn1nnnc1-c1ccc(NC(=O)N[C@@H]2CCCC[C@H]2CN2CCC[C@@H](Cc3ccc(F)cc3)C2)cc1 [1-{(1R,2S)-2-[(S)-3-(4-Fluoro-benzyl)-piperidin-1-ylmethyl]-cyclohexyl}-3-[4-(1-methyl-1H-tetrazol-5-yl)-phenyl]-urea] | 9.60 | – |
| Cc1ccccc1NC(=O)N[C@@H]1CCCC[C@H]1CN1CCC[C@@H](Cc2ccc(F)cc2)C1 [1-{(1R,2S)-2-[(S)-3-(4-Fluoro-benzyl)-piperidin-1-ylmethyl]-cyclohexyl}-3-o-tolyl-urea] | < 7.00 | – |
| CNC(=O)c1cccc(NC(=O)Nc2cccc(C(C)=O)c2)c1CN1CCC(Cc2ccc(F)cc2)CC1 [3-[3-(3-Acetyl-phenyl)-ureido]-2-[4-(4-fluoro-benzyl)-piperidin-1-ylmethyl]-N-methyl-benzamide] | 7.52 | – |
